Reference: publication PMC11969024, “Development of chemokine network inhibitors using combinatorial saturation mutagenesis” (Communications Biology, 2025)

What was measured:
[1] = tested on: Lymphocytes; test: Buffy coat lymphocyte migration induced by disease chemokine pools, inhibition by peptide; format: cell-based, human; details: peptide 10 uM; pool at EC50; compared to HD2SCR
Excerpt: (§1) To assess the potential of combinatorially mutated peptides as therapeutic agents in inflammatory disease, we explored their efficacy against pools of chemokines known to be produced in diseased tissues. We developed the chemokine pool approach to represent the naturally occurring mix of chemokines present in diseased tissues as chemokines have well-known synergistic interactions that cannot be recapitulated when studied individually[8],[11],[55]–[60]. We chose three diseases, atherosclerotic plaque, rheumatoid arthritis, and type 1 diabetes as exemplars, as there is considerable evidence supporting the role of chemokines in their pathology[2]–[4]. To develop disease-relevant chemokine pools, we identified well-characterised bulk RNA-sequencing datasets from atherosclerotic plaque (GSE198600) and rheumatoid arthritis synovium (GSE198520)[61],[62]. […] We analysed chemokine expression levels (in transcripts per million) from these datasets (Supplementary Fig. 6). For each disease we designed a synthetic chemokine pool such that individual chemokine molar concentrations were at ratios determined by the mean relative expression of chemokines in the RNA-sequencing dataset. […] In these experiments we also assessed the effect of EVA4, the parental CC-chemokine binding evasin from which the HD2 series was derived.

[2] = tested on: J:CXCR1 cells; test: Chemokine dose-response, J:CXCR1 cell migration; format: cell-based, human; details: mean of 7 replicates
Description: (§2) Cell lines were confirmed mycoplasma free by monthly testing using a MycoAlert^TM kit (LT07-118, Lonza) following the manufacturer’s instructions. THP1 cells: THP1 cells (ECACC 88081201, a human monocyte leukemia cell line[51]) were obtained from ECACC and were cultured in T175 flasks at 0.3-1 × 10^6 cells/mL in Roswell Park Memorial Institute (RPMI) 1640 medium (R0883, Sigma) with 10% FBS (F9665, Sigma) and 5mM L-glutamine (G7513, Sigma), 37 °C, 5% CO2. J:CXCR1 cells: The J:CXCR1 cell line was cultured in the same manner as THP1 cells at 0.15-1 × 10^6 cells per mL[37]. Activated T-cells: T-cells were isolated, activated and expanded as follows. […] The final pellet was resuspended in 1 mL of MACS buffer per 5 mL of initial blood volume and counted using cell size FSC-H/SSC-H parameters with gate settings previously defined by immunostaining (see below). […]
(§3) Cell counts were determined using an ATTUNE NxT Flow Cytometer with Cytkick autosampler (ThermoFisher), based on cell size parameters FSC-H/SSC-H, with previously defined gate settings. FSC-H/SSC-H gate settings for primary white blood cells from buffy coats were determined using flow cytometry to establish the granulocyte, monocyte and lymphocyte populations (Supplementary Fig. 13). […]

[3] = tested on: THP1 cells; test: THP1 cell migration (Transwell) induced by individual chemokines, inhibition by peptide; format: cell-based, human
Description: as §2, §3

[4] = tested on: THP1 cells, activated T-cells (ATC), J:CXCR1 cells; test: Meta-analysis of individual chemokine-induced cell migration experiments; format: cell-based, human; details: seven CC and three CXC chemokines, Dunnett's test
Description: Cell migration assays were performed as follows. THP1 cell migration. Briefly, 300000 cells/well were added to the top chamber of a 5-µm 96-well Transwell insert (3387, Corning) in 50 µL of cell migration media (RPMI-1640 (R0883, Sigma), 0.5% FBS (F9665, Sigma), 4mM L-Glutamine (G7513, Sigma), 0.05% DMSO (D4540, Sigma)). The bottom chamber contained 150 µL of migration media with chemokine and peptide. Cells were migrated at 37 °C in 5% CO2 for 4 h. J:CXCR1 cell migration was performed exactly as above using a 3-µm Transwell insert (3385, Corning). Activated T-cell migration. Briefly, 100000 cells/well were added to the top chamber of a 3-µm Transwell insert (3385, Corning) in 50 µL of migration media (HBSS (14025-092, Life Technologies), 0.1% protease free bovine serum albumin (A7030, Sigma), 0.05% DMSO (D4540, Sigma)). The bottom chamber contained 150 µL of migration media with chemokine and peptide. Cells were migrated at 37 °C in 5% CO2 for 2 h. Buffy coat migration. Briefly, a mixture of all cell types at 100000 cells/well were added to the top chamber of a 3-µm Transwell insert (3385, Corning) in 50 µL of migration media (HBSS (14025-092, Life Technologies), 0.1% protease free bovine serum albumin (A7030, Sigma), 0.05% DMSO (D4540, Sigma). The bottom chamber contained 150 µL of migration media with chemokine and peptide. Cells were migrated at 37 °C in 5% CO2 for 2 h. Analysis of cell migration. The migration plate was shaken at 850 RPM for 10 min, and media from bottom plate transferred to a round-bottomed 96 well plate (353910, Falcon). Cells were counted by flow cytometry as described above. Experiments were performed at chemokine EC80 for individual chemotaxis experiments and at EC50 for the pooled chemokine experiments, with three technical replicates, and at least three biological replicates. Statistical significance of differences between control and test groups was evaluated using a two-sided Dunnett’s test with multiple testing correction. Chemokine EC80 or chemokine pool EC50 values were as determined by performing a chemokine dose-response against the cell type and fitting the dose-response curve with a 3-parameter log-logistic model, where the maximal response is fixed at 100% response. […] IC50 was determined by performing inhibitor dose-response experiments and fitting the dose-response curve with a 3-parameter log-logistic model, fixing the bottom of the curve to zero. […] For summary statistics and comparisons, pEC50, pEC80 and pIC50 were calculated as the negative log10 of EC50, EC80 or IC50 expressed in moles/litre.
Sample size and estimated effect sizes were not formally calculated for cell-based or phage-display experiments and no randomization was performed. […]

[5] = tested on: J:CXCR1 cells (Jurkat cells stably transfected with CXCR1); test: J:CXCR1 cell migration induced by CXCL6, inhibition by peptide; format: cell-based, human; details: peptide 10 uM; CXCL6 at EC80; Dunnett's test
Description: as §2, with “follows. Briefly, density gradient centrifugation using Lymphoprep^TM density gradient medium (07801, […] Technologies) and a SepMate^TM isolation tube (85450, […] Technologies) was used to isolate peripheral blood mononuclear cells from human leukocyte cones. Two rounds of purification using a human CD8 + T-cell isolation kit (480011, BioLegend) were used to isolate CD8 + T-cells from peripheral blood mononuclear cells. Activation of CD8 + T-cells was performed in ImmunoCult^TM-XF T-cell expansion medium (10982, […] Technologies) with an anti-CD3/anti-CD28 T-cell activator at 25 μl/ml (10991, […] Technologies), supplemented with 10 ng/ml recombinant human IL-2 (200-02, PeproTech) with 1% penicillin/streptomycin.” for “follows.”
as §3

[6] = tested on: activated CD8+T-cells (ATC); test: Activated T-cell (ATC) migration induced by individual chemokines, inhibition by peptide; format: cell-based, human; details: peptide 10 uM; chemokines at EC80; Dunnett's test
Description: Cell lines were confirmed mycoplasma free by monthly testing using a MycoAlert^TM kit (LT07-118, Lonza) following the manufacturer’s instructions. THP1 cells: THP1 cells (ECACC 88081201, a human monocyte leukemia cell line[51]) were obtained from ECACC and were cultured in T175 flasks at 0.3-1 × 10^6 cells/mL in Roswell Park Memorial Institute (RPMI) 1640 medium (R0883, Sigma) with 10% FBS (F9665, Sigma) and 5mM L-glutamine (G7513, Sigma), 37 °C, 5% CO2. J:CXCR1 cells: The J:CXCR1 cell line was cultured in the same manner as THP1 cells at 0.15-1 × 10^6 cells per mL[37]. Activated T-cells: T-cells were isolated, activated and expanded as follows. Briefly, density gradient centrifugation using Lymphoprep^TM density gradient medium (07801, […] Technologies) and a SepMate^TM isolation tube (85450, […] Technologies) was used to isolate peripheral blood mononuclear cells from human leukocyte cones. Two rounds of purification using a human CD8 + T-cell isolation kit (480011, BioLegend) were used to isolate CD8 + T-cells from peripheral blood mononuclear cells. Activation of CD8 + T-cells was performed in ImmunoCult^TM-XF T-cell expansion medium (10982, […] Technologies) with an anti-CD3/anti-CD28 T-cell activator at 25 μl/ml (10991, […] Technologies), supplemented with 10 ng/ml recombinant human IL-2 (200-02, PeproTech) with 1% penicillin/streptomycin. T-cells were passaged every 2–3 days in TexMACS medium (130-097-196, Miltenyi Biotec), supplemented with 10 ng/ml human IL-2 (200-05-250, Peprotech) and incubated at 37 °C in 5% CO2. CD8 + T-cells were frozen at day 10-13 after initial activation, at 20×10^6 cell/ml in TexMACS medium supplemented with 10% DMSO (D2650, Sigma) in liquid nitrogen. Activated CD8^+ T-cells were recovered in TexMACs medium at 0.3 × 10^6 cell/ml and incubated at 37 °C in 5% CO2, 24 h prior to use. For buffy coat experiments a mixture of primary human monocytes, granulocytes and lymphocytes was isolated from human buffy coat. Briefly, RBCs were sedimented in HetaSep (07806, […] Technologies) with 1 mL of HetaSep per 5 mL of blood for 15 min at 37 °C. The buffy coat layer was collected from the top and washed in 50 ml MACS buffer (PBS (P4417, Sigma), 0.5% BSA (A7030, Sigma), 0.075% EDTA (E5134, Sigma), pH 7.2), by centrifugation at 2000 g for 10 min at room temperature. The pellet was resuspended in 10 mL of 1x RBC lysis solution (130-094-183, Miltenyi Biotec) and lysed for 10 min at room temperature. The cells were then washed in MACS buffer twice as above. The final pellet was resuspended in 1 mL of MACS buffer per 5 mL of initial blood volume and counted using cell size FSC-H/SSC-H parameters with gate settings previously defined by immunostaining (see below). The leukocytes were then resuspended in assay buffer for cell migration and used within 30 min of isolation.
Cell counts were determined using an ATTUNE NxT Flow Cytometer with Cytkick autosampler (ThermoFisher), based on cell size parameters FSC-H/SSC-H, with previously defined gate settings. FSC-H/SSC-H gate settings for primary white blood cells from buffy coats were determined using flow cytometry to establish the granulocyte, monocyte and lymphocyte populations (Supplementary Fig. 13). Briefly, cells were labelled with anti-CD3 (Miltenyi Biotec, 130-113-135) to identify the T cell population, anti-CD14 (Miltenyi Biotec, 130-110-578) to identify the monocyte population, and with anti-CD16 (Miltenyi Biotec, 130-113-951) to identify the granulocyte population. Negative control cells were labelled with anti-human IgG1 (Miltenyi Biotec, 130-113-434). All antibodies were allophycocyanin (APC) conjugated. 100,000 white blood cells were added to Eppendorf tubes and centrifuged at 300 g for 3 min. The supernatant was discarded, and the cells resuspended in 98 µL of MACS buffer (1× PBS, 2 mM EDTA and 0.5% BSA, sterile filtered). 2 µl of antibody was added to the cells. […]

[7] = lyophilised peptide, data provided by the manufacturer, ref GenScript, cited from earlier work
[8] = tested on: Monocytes; test: Buffy coat monocyte migration induced by disease chemokine pools, inhibition by peptide; format: cell-based, human; details: peptide 10 uM; pool at EC50; compared to HD2SCR
Excerpt: as §1

With “DDDDWDAYAPIWCYFT [HD2CM452, combinatorially mutated HD2 peptide, CM-maxCC group]” the “inhibition of lymphocyte migration, atherosclerosis pool” value [1] was “significant inhibition” and the “inhibition of lymphocyte migration, rheumatoid arthritis pool” value [1] was “significant inhibition”.

In the case of “CXCL6: human chemokine, Peprotech 300-41”, the “Mean pEC50” value [2] is reported as 7.71 [M] and the “Mean pEC80” value [2] is reported as 7.45 [M].

In the case of “DWDDWTAYWDLVCYFD [HD2CM3085, combinatorially mutated HD2 peptide, CM-min group]”, the “inhibition of CCL8 migration compared to the parental peptide” value ([3]; peptide 0.1 uM, CCL8 at EC80) is reported as “significantly worse” and the “inhibition of CCL7 migration compared to the parental peptide” value ([3]; peptide 5 uM, CCL7 at EC80) is reported as “no differently”.

For “EEDDYTAYAPLTCYFC [HD2T16C, HD2 point mutant]”, the “migrated cell count over all chemokines studied, compared to HD2 (meta-analysis)” value [4] was “significant improvement over HD2”, the “inhibition of CXCL6-induced migration of J:CXCR1 cells compared to parental HD2” value [5] was “significant improvement in inhibition” and the “inhibition of CCL19, CCL21, CXCL9, and CXCL11-induced migration of ATCs compared to parental HD2” value [6] was “significant improvement in inhibition”.

With EEDDYTAYWPLTCYFT [HD2A9W] the “migrated cell count over all chemokines studied, compared to HD2 (meta-analysis)” value [4] was “significant improvement over HD2”, the “inhibition of CXCL6-induced migration of J:CXCR1 cells compared to parental HD2” value [5] was “significant improvement in inhibition” and the “inhibition of CCL19, CCL21, CXCL9, and CXCL11-induced migration of ATCs compared to parental HD2” value [6] was “significant improvement in inhibition”. For the same substance, the “Solubility, Water” value ([7]; C-terminal amide) was “Insoluble”, the “Solubility, DMSO” value [7] was “Insoluble” and the “Solubility, HCOOH” value [7] was “Soluble”. The “Solubility, PBS” value [7] was “Insoluble”.

With “DDDDWDDYAPITCYFD [HD2CM539, combinatorially mutated HD2 peptide, CM-max group]” the “inhibition of monocyte migration, insulitis pool” value [8] was “significant inhibition”.
